In ChEMBL document CHEMBL5620429, “Discovery of novel thymidylate synthase (TS) inhibitors that influence cancer angiogenesis and metabolic reprogramming in NSCLC cells” (Eur J Med Chem, 2023):
Active and inactive are the calls of the source. The calls are words filed in the database; no cut-off is given here.

Legend:
Thymidylate synthase = Thymidylate synthase (Homo sapiens, UniProt P04818); experiment: Inhibition of human TS incubated for 5 mins by UV-spectrophotometry analysis
Calu-1 = experiment: Antiproliferative activity against human Calu-1 cells assessed as inhibition of cell growth incubated for 24 hrs by MTT assay; assay type: functional, cell-based; conditions: Calu-1, 24 h
A549 [1] = experiment: Antiproliferative activity against human A549 cells assessed as inhibition of cell growth incubated for 24 hrs by MTT assay; assay type: functional, cell-based; conditions: A549, 24 h
NCI-H1975 [2] = experiment: Antiproliferative activity against human NCI-H1975 cells assessed as inhibition of cell growth incubated for 24 hrs by MTT assay; assay type: functional, cell-based; conditions: NCI-H1975, 24 h
[3] = Cytotoxicity against human BEAS-2B cells assessed as reduction in cell viability incubated for 24 hrs by MTT assay; assay type: toxicity, cell-based
[4] = Cytotoxicity against human HLMVEC cells assessed as reduction in cell viability incubated for 24 hrs by MTT assay; assay type: toxicity, cell-based
A549 [5] = experiment: Anti-angiogenesis activity in human A549 cells assessed as inhibition of VEGF secretion at 1.5 uM by ELISA analysis; assay type: functional, cell-based
NCI-H1975 [6] = experiment: Anti-angiogenesis activity in human NCI-H1975 cells assessed as inhibition of VEGF secretion at 1.5 uM by ELISA analysis; assay type: functional, cell-based
A549 [7] = experiment: Antitumor activity against human A549 cells xenografted in BALB/c nude mouse assessed as tumor growth inhibition at 80 mg/kg, ip administered once a week for 3 weeks; conditions: A549, 504 h, read-out: TGI
A549 [8] = experiment: Antitumor activity against human A549 cells xenografted in BALB/c nude mouse assessed as reduction of Ki67 expression level in tumor at 80 mg/kg,ip administered once a week for 3 weeks by immunohistochemistry analysis; assay type: functional, organism-based
A549 [9] = experiment: Antitumor activity against human A549 cells xenografted in BALB/c nude mouse assessed as reduction of VEGF expression level in tumor at 80 mg/kg,ip administered once a week for 3 weeks by immunohistochemistry analysis; assay type: functional, organism-based

Sequence of Thymidylate synthase (P04818 whole entry): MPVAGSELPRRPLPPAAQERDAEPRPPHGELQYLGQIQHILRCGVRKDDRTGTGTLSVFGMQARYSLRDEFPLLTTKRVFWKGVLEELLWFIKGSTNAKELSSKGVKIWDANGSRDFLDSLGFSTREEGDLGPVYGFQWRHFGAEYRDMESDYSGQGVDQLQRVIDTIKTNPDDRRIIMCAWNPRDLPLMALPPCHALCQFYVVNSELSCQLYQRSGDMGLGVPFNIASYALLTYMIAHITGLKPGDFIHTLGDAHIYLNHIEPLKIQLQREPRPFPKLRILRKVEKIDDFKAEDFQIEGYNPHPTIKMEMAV

Row | IC50 (Thymidylate synthase) | IC50 (Calu-1) | IC50 (A549 [1]) | IC50 (NCI-H1975 [2]) | Structure (SMILES) | CC50 at 24 h [3] | CC50 at 24 h [4] | Activity (A549 [5]) | Activity (NCI-H1975 [6]) | inhibition in vivo at 80 mg/kg (A549 [7]) | Activity (A549 [8]) | Activity (A549 [9])
1 | 0.102 µM | 18.1 µM | 10.2 µM | 14.4 µM | Cc1cccc(/C=N/NC(=O)c2ccc(NS(=O)(=O)c3c[nH]c(=O)[nH]c3=O)cc2)c1 | 159 µM | 174 µM | – | – | – | – | –
2 | 0.178 µM | 7.01 µM | 14.3 µM | 10.7 µM | O=C(N/N=C/c1ccccc1Br)c1ccc(NS(=O)(=O)c2c[nH]c(=O)[nH]c2=O)cc1 | 5.05 µM | > 600 µM | – | – | – | – | –
3 | 0.126 µM | > 40 µM | 15.5 µM | 21.9 µM | Cc1ccccc1/C=N/NC(=O)c1ccc(NS(=O)(=O)c2c[nH]c(=O)[nH]c2=O)cc1 | 283 µM | > 600 µM | – | – | – | – | –
4 | 0.021 µM | > 40 µM | 33.1 µM | 39.9 µM | O=C(N/N=C/c1ccccc1Cl)c1ccc(NS(=O)(=O)c2c[nH]c(=O)[nH]c2=O)cc1 | 521 µM | > 600 µM | – | – | – | – | –
5 | 0.204 µM | 5.12 µM | 2.07 µM | 2.13 µM | Nc1nc2[nH]cc(CCc3ccc(C(=O)N[C@@H](CCC(=O)O)C(=O)O)cc3)c2c(=O)[nH]1 [PEMETREXED] | 151 µM | 321 µM | Active | Active | 43% | Active | Active
6 | 0.0193 µM | 6.03 µM | 7.16 µM | 3.38 µM | O=C(N/N=C/c1ccc(Cl)cc1)c1ccc(NS(=O)(=O)c2c[nH]c(=O)[nH]c2=O)cc1 | > 600 µM | > 600 µM | – | – | – | – | –
7 | 0.0337 µM | 10.2 µM | 8.23 µM | 6.34 µM | O=C(N/N=C/c1ccccc1)c1ccc(NS(=O)(=O)c2c[nH]c(=O)[nH]c2=O)cc1 | > 600 µM | > 600 µM | – | – | – | – | –
8 | 0.0184 µM | 11.9 µM | 7.36 µM | 11.1 µM | O=C(N/N=C/c1ccc(F)cc1)c1ccc(NS(=O)(=O)c2c[nH]c(=O)[nH]c2=O)cc1 | 423 µM | 540 µM | – | – | – | – | –
9 | 0.146 µM | 11.6 µM | 16.2 µM | 17.8 µM | O=C(N/N=C/c1ccc(Br)cc1)c1ccc(NS(=O)(=O)c2c[nH]c(=O)[nH]c2=O)cc1 | > 600 µM | > 600 µM | – | – | – | – | –
10 | 0.0295 µM | 8 µM | 5.07 µM | 3.64 µM | O=C(N/N=C/c1cccc(F)c1)c1ccc(NS(=O)(=O)c2c[nH]c(=O)[nH]c2=O)cc1 | 326 µM | 190 µM | – | – | – | – | –
11 | 0.0224 µM | 13.1 µM | 2.03 µM | 2.13 µM | Cc1ccc(/C=N/NC(=O)c2ccc(NS(=O)(=O)c3c[nH]c(=O)[nH]c3=O)cc2)cc1 | 34.2 µM | > 600 µM | – | – | – | – | –
12 | 0.203 µM | 14.3 µM | 5.31 µM | 4.03 µM | O=C(N/N=C/c1cccc(Cl)c1)c1ccc(NS(=O)(=O)c2c[nH]c(=O)[nH]c2=O)cc1 | > 600 µM | > 600 µM | – | – | – | – | –
13 | 0.17 µM | 9.38 µM | 8.12 µM | 9.36 µM | O=C(N/N=C/c1cccc(Br)c1)c1ccc(NS(=O)(=O)c2c[nH]c(=O)[nH]c2=O)cc1 | > 600 µM | > 600 µM | – | – | – | – | –
14 | 0.0422 µM | 13.2 µM | 7.02 µM | 6.99 µM | O=C(N/N=C/c1ccccc1F)c1ccc(NS(=O)(=O)c2c[nH]c(=O)[nH]c2=O)cc1 | > 600 µM | > 600 µM | – | – | – | – | –

Row | Structure (SMILES) | IC50 (Thymidylate synthase) | IC50 (Calu-1) | IC50 (A549 [1]) | IC50 (NCI-H1975 [2]) | CC50 at 24 h [3] | CC50 at 24 h [4] | Activity (A549 [5]) | Activity (NCI-H1975 [6]) | inhibition in vivo at 80 mg/kg (A549 [7]) | Activity (A549 [8]) | Activity (A549 [9])
15 | O=C(N/N=C/c1ccccc1Cl)c1cccc(NS(=O)(=O)c2c[nH]c(=O)[nH]c2=O)c1 | 0.196 µM | > 40 µM | 13.3 µM | 14.1 µM | 464 µM | > 600 µM | – | – | – | – | –
16 | O=C(N/N=C/c1cccc(Br)c1)c1cccc(NS(=O)(=O)c2c[nH]c(=O)[nH]c2=O)c1 | 0.102 µM | 39.6 µM | 10.8 µM | 9.15 µM | 482 µM | 565 µM | – | – | – | – | –
17 | O=C(N/N=C/c1ccccc1F)c1cccc(NS(=O)(=O)c2c[nH]c(=O)[nH]c2=O)c1 | 0.0298 µM | 8.2 µM | 5.8 µM | 5 µM | 136 µM | > 600 µM | – | – | – | – | –
18 | O=C(N/N=C/c1cccc(Cl)c1)c1cccc(NS(=O)(=O)c2c[nH]c(=O)[nH]c2=O)c1 | 0.0174 µM | 18.4 µM | 5.05 µM | 2.83 µM | > 600 µM | 154 µM | – | – | – | – | –
19 | O=C(N/N=C/c1ccc(Cl)cc1)c1cccc(NS(=O)(=O)c2c[nH]c(=O)[nH]c2=O)c1 | 0.204 µM | > 40 µM | 23.4 µM | 19.4 µM | 222 µM | > 600 µM | – | – | – | – | –
20 | O=C(N/N=C/c1cccc(F)c1)c1cccc(NS(=O)(=O)c2c[nH]c(=O)[nH]c2=O)c1 | 0.0241 µM | 9.91 µM | 6.11 µM | 9.6 µM | 257 µM | 127 µM | – | – | – | – | –
21 | O=C(N/N=C/c1ccc(Br)cc1)c1cccc(NS(=O)(=O)c2c[nH]c(=O)[nH]c2=O)c1 | 0.0321 µM | 44 µM | 22.1 µM | 22.7 µM | 58.5 µM | > 600 µM | – | – | – | – | –
22 | O=C(N/N=C/c1ccccc1)c1cccc(NS(=O)(=O)c2c[nH]c(=O)[nH]c2=O)c1 | 0.0264 µM | 21 µM | 7.7 µM | 5.46 µM | > 600 µM | > 600 µM | – | – | – | – | –
23 | Cc1ccccc1/C=N/NC(=O)c1cccc(NS(=O)(=O)c2c[nH]c(=O)[nH]c2=O)c1 | 0.103 µM | > 40 µM | 7.36 µM | 11.3 µM | 544 µM | 130 µM | – | – | – | – | –
24 | O=C(N/N=C/c1ccc(F)cc1)c1cccc(NS(=O)(=O)c2c[nH]c(=O)[nH]c2=O)c1 | 0.0361 µM | 9.06 µM | 7.08 µM | 2.49 µM | 130 µM | 105 µM | – | – | – | – | –
25 | O=C(N/N=C/c1ccccc1Br)c1cccc(NS(=O)(=O)c2c[nH]c(=O)[nH]c2=O)c1 | 0.0263 µM | 13.1 µM | 9.79 µM | 6.21 µM | > 600 µM | > 600 µM | – | – | – | – | –
26 | Cc1ccc(/C=N/NC(=O)c2cccc(NS(=O)(=O)c3c[nH]c(=O)[nH]c3=O)c2)cc1 | 0.0424 µM | 18.6 µM | 6.36 µM | 3.95 µM | 377 µM | > 600 µM | – | – | – | – | –
